Experiments:
ALOMY = assay: Pre-emergence action against ALOMY; assay type: in vivo, Alopecurus myosuroides; details: dosage 320 g/ha; pre-emergence; scored visually after 3 weeks vs untreated controls; 100% = plants have died, 0% = like control plants
Excerpt: (§1) Seeds of monocotyledonous and dicotyledonous weed plants and crop plants are laid out in sandy loam soil in wood-fiber pots and covered with soil. The compounds of the invention, formulated in the form of wettable powders (WP) or as emulsion concentrates (EC), are then applied to the surface of the covering soil in the form of an aqueous suspension or emulsion at a water application rate equating to […], with addition of 0.2% wetting agent. After the treatment, the pots are placed in a greenhouse and kept under good growth conditions for the trial plants. The damage to the test plants is scored visually after a test period of 3 weeks by comparison with untreated controls (herbicidal activity in percent (%): 100% activity=the plants have died, 0% activity=like control plants).

ECHCG [1] = assay: Pre-emergence action against ECHCG; assay type: in vivo, Echinochloa crus-galli; details: pre-emergence, dosage 320 g/ha, scored visually after 3 weeks vs untreated controls
Excerpt: as §1

AMARE [2] = assay: Pre-emergence action against AMARE; assay type: in vivo, Amaranthus retroflexus; details: pre-emergence, dosage 320 g/ha, scored visually after 3 weeks vs untreated controls
Excerpt: as §1

MATIN [3] = assay: Pre-emergence action against MATIN; assay type: in vivo, Matricaria inodora; details: Dosage 320 g/ha, pre-emergence
Excerpt: as §1

STEME [4] = assay: Pre-emergence action against STEME; assay type: in vivo, Stellaria media; details: Dosage 320 g/ha, pre-emergence
Excerpt: as §1

VERPE = assay: Pre-emergence action against VERPE; assay type: in vivo, Veronica persica; details: Dosage 320 g/ha, pre-emergence
Excerpt: as §1

CYPES [5] = assay: Post-emergence action against CYPES; assay type: in vivo, Cyperus esculentus; details: post-emergence, dosage 80 g/ha, visual assessment about 3 weeks after treatment vs untreated controls
Procedure: (§2) Seeds of monocotyledonous and dicotyledonous weed and crop plants are laid out in sandy loam soil in wood-fiber pots, covered with soil and cultivated in a greenhouse under good growth conditions. 2 to 3 weeks after sowing, the test plants are treated at the one-leaf stage. The compounds of the invention, formulated in the form of wettable powders (WP) or as emulsion concentrates (EC), are then sprayed onto the green parts of the plants in the form of an aqueous suspension or emulsion at a water application rate equating to […], with addition of 0.2% wetting agent. After the test plants have been left to stand in the greenhouse under optimal growth conditions for about 3 weeks, the action of the preparations is assessed visually in comparison to untreated controls (herbicidal action in percent (%): 100% activity=the plants have died, 0% activity=like control plants). […] At the same time, inventive compounds leave Gramineae crops such as barley, wheat, rye, millet/Sorghum, corn or rice virtually undamaged when applied post-emergence, even at high active ingredient dosages. In addition, some substances are also harmless to dicotyledonous crops such as soya, cotton, oilseed rape, sugar beet or potatoes. Some of the compounds according to the invention have high selectivity and are therefore suitable for controlling unwanted vegetation in agricultural crops by the post-emergence method. The data of Tables B18 to B34 below illustrate, in an exemplary manner, the […] herbicidal action of the compounds according to the invention, the herbicidal activity being stated in percent.

ECHCG [6] = assay: Post-emergence action against ECHCG; assay type: in vivo, Echinochloa crus-galli; details: post-emergence, dosage 80 g/ha, visual assessment about 3 weeks after treatment vs untreated controls
Procedure: as §2

ABUTH [7] = assay: Post-emergence action against ABUTH; assay type: in vivo, Abutilon theophrasti; details: post-emergence, dosage 80 g/ha, visual assessment about 3 weeks after treatment vs untreated controls
Procedure: as §2

AMARE [8] = assay: Post-emergence action against AMARE; assay type: in vivo, Amaranthus retroflexus; details: post-emergence, dosage 80 g/ha, visual assessment about 3 weeks after treatment vs untreated controls
Procedure: as §2

MATIN [9] = assay: Post-emergence action against MATIN; assay type: in vivo, Matricaria inodora; details: post-emergence, dosage 80 g/ha, visual assessment about 3 weeks after treatment vs untreated controls
Procedure: as §2

PHBPU [10] = assay: Post-emergence action against PHBPU; assay type: in vivo, Pharbitis purpurea; details: post-emergence, dosage 80 g/ha
Procedure: as §2

STEME [11] = assay: Post-emergence action against STEME; assay type: in vivo, Stellaria media; details: post-emergence, dosage 80 g/ha
Procedure: as §2

VIOTR [12] = assay: Post-emergence action against VIOTR; assay type: in vivo, Viola tricolor; details: post-emergence, dosage 80 g/ha
Procedure: as §2

ABUTH [13] = assay: Pre-emergence action against ABUTH; assay type: in vivo, Abutilon theophrasti; details: pre-emergence, dosage 320 g/ha, scored visually after 3 weeks vs untreated controls
Excerpt: as §1

PHBPU [14] = assay: Pre-emergence action against PHBPU; assay type: in vivo, Pharbitis purpurea; details: Dosage 320 g/ha, pre-emergence
Excerpt: as §1

CYPES [15] = assay: Pre-emergence action against CYPES; assay type: in vivo, Cyperus esculentus; details: pre-emergence, dosage 320 g/ha, scored visually after 3 weeks vs untreated controls
Excerpt: as §1

SETVI = assay: Pre-emergence action against SETVI; assay type: in vivo, Setaria viridis; details: pre-emergence, dosage 320 g/ha, scored visually after 3 weeks vs untreated controls
Excerpt: as §1

POLCO = assay: Pre-emergence action against POLCO; assay type: in vivo, Polygonum convolvulus; details: Dosage 320 g/ha, pre-emergence
Excerpt: as §1

VIOTR [16] = assay: Pre-emergence action against VIOTR; assay type: in vivo, Viola tricolor; details: Dosage 320 g/ha, pre-emergence
Excerpt: as §1

Row | SMILES | Pre-emergence action against ALOMY (herbicidal activity in percent) (ALOMY) [%] | Pre-emergence action against ECHCG (herbicidal activity) (ECHCG [1]) [%] | Pre-emergence action against AMARE (herbicidal activity) (AMARE [2]) [%] | Pre-emergence action against MATIN (MATIN [3]) [%] | Pre-emergence action against STEME (STEME [4]) [%] | Pre-emergence action against VERPE (VERPE) [%] | Post-emergence action against CYPES (herbicidal action in percent) (CYPES [5]) [%] | Post-emergence action against ECHCG (herbicidal action in percent) (ECHCG [6]) [%] | Post-emergence action against ABUTH (herbicidal action in percent) (ABUTH [7]) [%] | Post-emergence action against AMARE (herbicidal action in percent) (AMARE [8]) [%] | Post-emergence action against MATIN (herbicidal action in percent) (MATIN [9]) [%] | Post-emergence action against PHBPU (PHBPU [10]) | Post-emergence action against STEME (STEME [11]) | Post-emergence action against VIOTR (VIOTR [12]) | Pre-emergence action against ABUTH (herbicidal activity) (ABUTH [13]) [%] | Pre-emergence action against PHBPU (PHBPU [14]) [%] | Pre-emergence action against CYPES (herbicidal activity) (CYPES [15]) [%] | SETVI (Table B8, pre-emergence herbicidal activity) (SETVI) [%] | Pre-emergence action against POLCO (POLCO) [%] | Pre-emergence action against VIOTR (VIOTR [16]) [%]
1 | CCC(=O)c1c(C)ccc(C(=O)Nc2nnnn2CC)c1Cl [2-135] | 90 | 90 | 100 | 90 | 90 | 90 | 80 | 90 | 80 | 90 | 90 | 90 | 100 | 90 | – | – | – | – | – | –
2 | CCn1nnnc1NC(=O)c1ccc(C)c(C(=O)C2CC2)c1Cl [2-136] | 90 | – | 100 | 100 | 90 | 90 | – | – | – | – | 90 | 90 | 80 | 80 | 90 | 100 | – | – | – | –
3 | CCn1nnnc1NC(=O)c1ccc(C(F)(F)F)c(C(=O)C(C)(C)C)c1Cl [2-143] | – | 90 | 100 | 100 | 100 | 100 | – | – | – | – | – | – | 90 | – | 100 | – | 90 | 80 | 100 | 100
4 | CCn1nnnc1NC(=O)c1ccc(C(F)(F)F)c(C(=O)c2cc(F)cc(F)c2)c1Cl [2-286] | – | – | 100 | – | – | – | – | 80 | 80 | 90 | – | 90 | – | 80 | 80 | 80 | – | – | – | 100
